Laboratory results as given in patent US20090246152A1, “NARACTIN COMPOSITIONS FOR THE INHIBITION OF REACTIVE OXYGEN SPECIES” (Nu Skin International, Inc., priority 2008, published 2009).

What was measured:
arNOX [1] = test: arNOX inhibition, superoxide-dependent reduction of ferric cytochrome c with serum or buffy coats (Table 1); type: biochemical; conditions: 25 μg/ml
Protocol: Superoxide Production By Buffy Coats: Buffy coats, a mixture of lymphocytes and platelets. Such buffy coats are commercially available from, for example, Rockland ImmunoChemicals (Gilbertsville, Pa.). The blood samples were maintained at 4° C. prior to collection and assay. Ca. 10^7 cells were added to each assay. Cell numbers were determined using a hemocytometer.
Reduction of ferric cytochrome c by superoxide was employed as a standard measure of superoxide formation (Mayo, L. A. and Cumutte, J. (1990) Meth. Enzyme. 186, 567-575. 7. Butler, J, Koppenol, W. H. and Margollash, E. (1982) J. Biol. Chem. 257, 10747). This is a widely accepted method when coupled to superoxide dismutase inhibition for the measurement of superoxide generation. The assay consists of 150 μl serum or 40 μl buffy coats in PBSG buffer (8.06 g NaCl, 0.2 g KCl, 0.18 g Na2HPO4, 0.26 g KH2PO4, 0.13 g CaCl2, 0.1 g MgCl2 1.35 g glucose dissolved in 1000 ml deionized water, adjusted to pH 7.4, filtered and stored at 4° C.) Rates were determined using an SLM Aminco DW-2000 spectrophotometer (Milton Roy, Rochester, N.Y., USA) in the dual wave length mode of operation with continuous measurements over 1 min every 1.5 min. After 45 min, test compounds were added and the reaction was continued for 45 min. After 45 min. a millimolar extinction coefficient of […] was used for reduced ferricytochrome c. Extracts were made of the compounds in water unless otherwise indicated.

arNOX [2] = test: arNOX activity of saliva (person), ferricytochrome c reduction; type: biochemical, human; conditions: for arNOX inhibition (result in words): substance or extract alone; for inhibition of arNOX activity of saliva: 1 mg/ml, saliva from person; for augmentation of low activity N. tazetta powder: FIGS. 1a and 1b
Protocol: Of the mixture, 60 μl was added to at total of three ml of assay mixture containing saliva as the arNOX activity source.
The assay consists of 150 μl serum or 40 μl buffy coats in PBSG buffer (8.06 g NaCl, 0.2 g KCl, 0.18 g Na2HPO4, 0.26 g KH2PO4, 0.13 g CaCl2, 0.1 g MgCl2 1.35 g glucose dissolved in 1000 ml deionized water, adjusted to pH 7.4, filtered and stored at 4° C.) Rates were determined using an SLM Aminco DW-2000 spectrophotometer (Milton Roy, Rochester, N.Y., USA) in the dual wave length mode of operation with continuous measurements over 1 min every 1.5 min. After 45 min, test compounds were added and the reaction was continued for 45 min. After 45 min. a millimolar extinction coefficient of 19.1 cm^−1 was used for reduced ferricytochrome c. Extracts were made of the compounds in water unless otherwise indicated.

SMILES	ArNOX ACTIVITY % OF NO ADDITION (arNOX [1]; Ethanol) [%]	arNOX inhibition (result in words) (arNOX [2])	inhibition of arNOX activity of saliva (arNOX [2])	augmentation of low activity N. tazetta powder (arNOX [2])	further results
CC1=C(/C=C/C(C)=C/C=C/C(C)=C/C=C/C=C(C)/C=C/C=C(C)/C=C/C2=C(C)C(=O)[C@@H](O)CC2(C)C)C(C)(C)C[C@H](O)C1=O [Natural astaxanthin, astaxanthin]	62	–	–	–	–
CC1=C(/C=C/C(C)=C/C=C/C(C)=C/C=C/C=C(C)/C=C/C=C(C)/C=C/C2=C(C)CCCC2(C)C)C(C)(C)CCC1 [β-Carotene]	68	–	–	–	ArNOX ACTIVITY % OF NO ADDITION (arNOX [1]; Water): 28%
CC(=O)Oc1ccccc1C(=O)O [aspirin, reference compound]	–	did not inhibit arNOX activity	–	–	–
O=C(O)c1ccccc1O [Salicylic acid, salicylic acid]	–	found to inhibit arNOX activity	about 50%	–	–
OCc1ccccc1O[C@@H]1O[C@H](CO)[C@@H](O)[C@H](O)[C@H]1O [salicin]	–	active as a single agent	–	notably decreased arNOX activity	augmentation of arNOX inhibition of mixtures of Schizandra chinensis powder and N. tazetta powder/extract (arNOX [2]; 1 mg/ml salicin, FIGS. 10a, 10b): active in augmenting the arNOX inhibition; active concentration relative to SHAM (Naractin 1) or salicylic acid (Naractin 2) (arNOX [2]; FIG. 9): active at a ten-fold lower concentration; concentration at which maximum inhibition of arNOX activity is achieved (arNOX [2]; saliva, FIG. 9): 1 mg/mL
O=C(NO)c1ccccc1O [SHAM, salicyl hydroxamate]	–	–	greater than 90%	notably decreased arNOX activity	arNOX activity after addition to N. tazetta powder extract (arNOX [2]; saliva of person, FIG. 1a): nearly complete inhibition; concentration at which inhibition of arNOX activity is largely complete (arNOX [2]; saliva, FIG. 7): 11 mg/mL
